Test results: patent publication US11952364B2, “TRK inhibitors useful as anticancer drugs” (TYLIGAND BIOSCIENCE (SHANGHAI) LIMITED, priority 2018, dated 2024)

Columns and labels:
Assay in all cases: KINOMEscan competition binding assay
RET(M918T) = RET(M918T) (Homo sapiens (Human), UniProt P07949, M918T)
Description: (§1) The experiment was performed according to the standard kinase activity determination protocol by Eurofins DiscoverX Corporation (11180 Roselle St. Suite D, San Diego, CA, USA, www.discoverX.com). Specifically, the experiment was conducted using the KINOMEscan™ screening platform, which adopts an active site-directed competition binding assay to quantitatively measure the interaction between test compounds and more than hundreds of human kinases and disease-related mutants. The working principle of the screening platform and kinase assay methods are well known in the art, for example, see www.discoverX.com.

MERTK = MERTK (Homo sapiens (Human), UniProt Q12866)
Description: as §1

EPHB6 = EPHB6 (Homo sapiens (Human), UniProt O15197)
Description: as §1

CDK11 = CDK11 (Homo sapiens (Human), UniProt Q9BWU1)
Description: as §1

TRKB = TRKB (Homo sapiens (Human), UniProt Q16620)
Description: as §1

AXL = AXL (Homo sapiens (Human), UniProt P30530)
Description: as §1

FLT3(K663Q) = FLT3(K663Q) (Homo sapiens (Human), UniProt P36888, K663Q)
Description: as §1

DDR1 = DDR1 (Homo sapiens (Human), UniProt Q08345)
Description: as §1

MET = MET (Homo sapiens (Human), UniProt P08581)
Description: as §1

PDGFRB = PDGFRB (Homo sapiens (Human), UniProt P09619)
Description: as §1

TRKC = TRKC (Homo sapiens (Human), UniProt Q16288)
Description: as §1

EPHA8 = EPHA8 (Homo sapiens (Human), UniProt P29322)
Description: as §1

MET(M1250T) = MET(M1250T) (Homo sapiens (Human), UniProt P08581, M1250T)
Description: as §1

MYO3B = MYO3B (Homo sapiens (Human), UniProt Q8WXR4)
Description: as §1

KIT = KIT (Homo sapiens (Human), UniProt P10721)
Description: as §1

KIT(V559D) = KIT(V559D) (Homo sapiens (Human), UniProt P10721, V559D)
Description: as §1

NEK9 = NEK9 (Homo sapiens (Human), UniProt Q8TD19)
Description: as §1

IKK-alpha = IKK-alpha (Homo sapiens (Human), UniProt O15111)
Description: as §1

FLT4 = FLT4 (Homo sapiens (Human), UniProt P35916)
Description: as §1

CDKL2 = CDKL2 (Homo sapiens (Human), UniProt Q92772)
Description: as §1

LOK = LOK (Homo sapiens (Human), UniProt O94804)
Description: as §1

MUSK = MUSK (Homo sapiens (Human), UniProt O15146)
Description: as §1

MET(Y1235D) = MET(Y1235D) (Homo sapiens (Human), UniProt P08581, Y1235D)
Description: as §1

TIE1 = TIE1 (Homo sapiens (Human), UniProt P35590)
Description: as §1

PLK4 = PLK4 (Homo sapiens (Human), UniProt O00444)
Description: as §1

TIE2 = TIE2 (Homo sapiens (Human), UniProt Q02763)
Description: as §1

MKNK1 = MKNK1 (Homo sapiens (Human), UniProt Q9BUB5)
Description: as §1

FLT3 = FLT3 (Homo sapiens (Human), UniProt P36888)
Description: as §1

CDK7 = CDK7 (Homo sapiens (Human), UniProt P50613)
Description: as §1

MST1R = MST1R (Homo sapiens (Human), UniProt Q04912)
Description: as §1

TRKB, sequence (Q16620 32-822): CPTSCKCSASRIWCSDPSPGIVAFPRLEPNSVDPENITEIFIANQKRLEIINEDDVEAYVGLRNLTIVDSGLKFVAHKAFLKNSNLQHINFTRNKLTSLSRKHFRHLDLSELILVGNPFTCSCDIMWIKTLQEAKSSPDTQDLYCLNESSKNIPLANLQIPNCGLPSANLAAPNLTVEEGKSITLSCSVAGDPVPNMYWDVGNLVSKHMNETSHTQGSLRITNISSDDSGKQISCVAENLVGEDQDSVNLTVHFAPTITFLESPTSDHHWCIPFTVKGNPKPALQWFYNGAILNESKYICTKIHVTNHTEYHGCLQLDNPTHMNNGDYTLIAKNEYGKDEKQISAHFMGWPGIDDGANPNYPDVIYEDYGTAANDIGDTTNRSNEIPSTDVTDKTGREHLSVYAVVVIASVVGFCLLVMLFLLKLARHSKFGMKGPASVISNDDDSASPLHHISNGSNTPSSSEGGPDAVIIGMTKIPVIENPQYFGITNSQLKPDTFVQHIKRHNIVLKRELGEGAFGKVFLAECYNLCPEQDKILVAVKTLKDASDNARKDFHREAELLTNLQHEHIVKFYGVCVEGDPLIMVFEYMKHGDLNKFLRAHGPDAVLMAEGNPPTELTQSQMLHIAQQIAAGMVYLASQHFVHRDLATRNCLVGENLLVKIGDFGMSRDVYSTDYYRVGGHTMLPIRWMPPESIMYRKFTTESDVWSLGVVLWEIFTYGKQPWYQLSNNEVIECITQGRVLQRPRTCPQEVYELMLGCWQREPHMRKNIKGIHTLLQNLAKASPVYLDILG
MKNK1, sequence (Q9BUB5 whole entry): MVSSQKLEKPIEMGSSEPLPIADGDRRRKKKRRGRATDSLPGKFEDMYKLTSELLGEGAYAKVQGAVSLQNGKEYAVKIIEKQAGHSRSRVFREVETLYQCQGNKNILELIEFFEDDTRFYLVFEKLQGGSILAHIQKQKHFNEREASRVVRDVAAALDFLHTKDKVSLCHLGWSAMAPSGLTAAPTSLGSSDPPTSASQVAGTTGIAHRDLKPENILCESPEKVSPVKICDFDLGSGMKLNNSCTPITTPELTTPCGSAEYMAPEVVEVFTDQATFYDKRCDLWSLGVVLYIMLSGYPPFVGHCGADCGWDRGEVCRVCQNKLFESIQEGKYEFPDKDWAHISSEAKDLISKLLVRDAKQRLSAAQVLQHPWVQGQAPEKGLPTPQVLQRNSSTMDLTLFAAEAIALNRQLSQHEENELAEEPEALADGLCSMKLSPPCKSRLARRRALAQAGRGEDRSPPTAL
CDK11, sequence (Q9BWU1 whole entry): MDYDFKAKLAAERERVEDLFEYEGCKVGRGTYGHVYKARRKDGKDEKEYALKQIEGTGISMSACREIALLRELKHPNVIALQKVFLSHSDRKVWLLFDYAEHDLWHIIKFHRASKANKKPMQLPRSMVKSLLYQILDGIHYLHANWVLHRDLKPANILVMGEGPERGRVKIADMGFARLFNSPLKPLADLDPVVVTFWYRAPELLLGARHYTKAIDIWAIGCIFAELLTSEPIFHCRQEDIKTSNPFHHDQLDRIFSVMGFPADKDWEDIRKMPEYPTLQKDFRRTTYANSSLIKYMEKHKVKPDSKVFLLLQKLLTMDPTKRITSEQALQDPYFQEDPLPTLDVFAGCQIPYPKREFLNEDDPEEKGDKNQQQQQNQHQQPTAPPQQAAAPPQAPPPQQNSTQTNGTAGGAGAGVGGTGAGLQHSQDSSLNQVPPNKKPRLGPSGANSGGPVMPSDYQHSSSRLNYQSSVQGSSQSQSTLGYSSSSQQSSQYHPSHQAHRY
EPHA8, sequence (P29322 28-1005): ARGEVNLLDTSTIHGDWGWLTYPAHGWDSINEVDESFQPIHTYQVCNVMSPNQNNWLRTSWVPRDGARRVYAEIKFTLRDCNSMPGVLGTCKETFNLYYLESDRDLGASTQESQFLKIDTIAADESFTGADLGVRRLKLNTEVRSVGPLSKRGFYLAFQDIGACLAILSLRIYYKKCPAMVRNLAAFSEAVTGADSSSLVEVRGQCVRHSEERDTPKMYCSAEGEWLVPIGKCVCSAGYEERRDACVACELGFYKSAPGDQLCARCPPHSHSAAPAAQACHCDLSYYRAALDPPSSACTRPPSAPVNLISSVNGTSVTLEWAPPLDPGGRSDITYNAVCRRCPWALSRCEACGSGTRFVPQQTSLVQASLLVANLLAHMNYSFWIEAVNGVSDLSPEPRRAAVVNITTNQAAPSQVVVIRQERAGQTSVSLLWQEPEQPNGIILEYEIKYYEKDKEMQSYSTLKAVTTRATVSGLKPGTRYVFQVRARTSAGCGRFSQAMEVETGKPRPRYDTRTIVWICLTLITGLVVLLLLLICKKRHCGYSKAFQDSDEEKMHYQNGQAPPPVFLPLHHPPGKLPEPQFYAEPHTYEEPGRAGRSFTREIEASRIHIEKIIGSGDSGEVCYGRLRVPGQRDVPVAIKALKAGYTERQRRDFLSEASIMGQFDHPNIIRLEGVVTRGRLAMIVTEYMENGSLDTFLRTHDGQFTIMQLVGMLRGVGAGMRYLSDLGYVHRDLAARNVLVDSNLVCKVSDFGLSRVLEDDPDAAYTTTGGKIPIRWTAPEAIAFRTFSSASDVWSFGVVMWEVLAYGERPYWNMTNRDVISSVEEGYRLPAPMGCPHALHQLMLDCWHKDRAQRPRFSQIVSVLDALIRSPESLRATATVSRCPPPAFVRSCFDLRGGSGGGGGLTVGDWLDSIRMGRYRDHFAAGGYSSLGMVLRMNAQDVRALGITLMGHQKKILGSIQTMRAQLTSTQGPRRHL
DDR1, sequence (Q08345 19-913): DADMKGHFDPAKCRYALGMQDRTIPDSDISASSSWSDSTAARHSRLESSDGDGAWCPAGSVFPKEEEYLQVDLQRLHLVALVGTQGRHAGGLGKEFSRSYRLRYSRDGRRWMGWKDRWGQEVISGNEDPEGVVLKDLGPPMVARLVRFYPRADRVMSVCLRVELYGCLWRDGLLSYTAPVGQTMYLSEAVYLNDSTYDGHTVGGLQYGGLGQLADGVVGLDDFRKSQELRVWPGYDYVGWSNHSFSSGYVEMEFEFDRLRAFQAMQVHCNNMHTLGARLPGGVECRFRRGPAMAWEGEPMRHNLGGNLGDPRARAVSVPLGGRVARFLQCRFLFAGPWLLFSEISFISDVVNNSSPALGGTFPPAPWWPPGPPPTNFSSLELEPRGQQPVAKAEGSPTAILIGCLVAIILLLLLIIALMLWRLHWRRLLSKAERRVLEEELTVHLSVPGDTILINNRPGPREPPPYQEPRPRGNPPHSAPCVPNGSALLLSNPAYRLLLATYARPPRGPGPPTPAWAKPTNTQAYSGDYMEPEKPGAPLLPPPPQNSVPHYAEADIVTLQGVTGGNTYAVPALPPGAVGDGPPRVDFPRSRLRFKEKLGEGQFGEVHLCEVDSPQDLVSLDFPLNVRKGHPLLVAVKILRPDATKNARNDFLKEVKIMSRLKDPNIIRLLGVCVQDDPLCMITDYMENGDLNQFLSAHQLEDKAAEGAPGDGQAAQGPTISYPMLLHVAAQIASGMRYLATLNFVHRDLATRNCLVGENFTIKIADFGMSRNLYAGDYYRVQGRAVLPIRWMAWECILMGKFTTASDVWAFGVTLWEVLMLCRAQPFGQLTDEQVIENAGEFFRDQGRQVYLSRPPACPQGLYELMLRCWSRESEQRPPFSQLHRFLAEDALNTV
MERTK, sequence (Q12866 21-999): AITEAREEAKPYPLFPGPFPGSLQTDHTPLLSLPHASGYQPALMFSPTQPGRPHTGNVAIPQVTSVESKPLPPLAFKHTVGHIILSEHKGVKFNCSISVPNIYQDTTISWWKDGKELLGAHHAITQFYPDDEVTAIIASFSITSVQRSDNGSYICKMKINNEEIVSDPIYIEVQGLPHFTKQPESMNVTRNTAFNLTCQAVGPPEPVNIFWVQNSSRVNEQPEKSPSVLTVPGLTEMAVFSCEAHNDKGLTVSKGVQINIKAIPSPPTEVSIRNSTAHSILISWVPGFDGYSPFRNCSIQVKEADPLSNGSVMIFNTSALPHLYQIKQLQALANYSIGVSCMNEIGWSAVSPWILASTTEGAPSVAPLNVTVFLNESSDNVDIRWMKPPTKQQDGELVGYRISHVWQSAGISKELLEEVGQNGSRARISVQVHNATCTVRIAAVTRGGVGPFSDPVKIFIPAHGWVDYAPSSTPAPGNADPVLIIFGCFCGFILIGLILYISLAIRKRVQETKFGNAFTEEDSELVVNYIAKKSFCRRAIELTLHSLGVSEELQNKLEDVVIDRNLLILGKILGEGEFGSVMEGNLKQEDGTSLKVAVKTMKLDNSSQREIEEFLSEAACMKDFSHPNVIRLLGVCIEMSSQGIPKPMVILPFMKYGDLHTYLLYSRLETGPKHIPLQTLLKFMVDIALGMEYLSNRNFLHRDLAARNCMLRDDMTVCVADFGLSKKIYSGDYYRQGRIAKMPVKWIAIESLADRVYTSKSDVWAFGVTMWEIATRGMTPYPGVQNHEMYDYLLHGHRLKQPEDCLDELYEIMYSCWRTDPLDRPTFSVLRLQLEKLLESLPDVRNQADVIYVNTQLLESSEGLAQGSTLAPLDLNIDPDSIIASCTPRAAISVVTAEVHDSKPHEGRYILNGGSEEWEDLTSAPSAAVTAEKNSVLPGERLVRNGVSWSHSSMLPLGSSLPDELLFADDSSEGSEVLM
CDK7, sequence (P50613 whole entry): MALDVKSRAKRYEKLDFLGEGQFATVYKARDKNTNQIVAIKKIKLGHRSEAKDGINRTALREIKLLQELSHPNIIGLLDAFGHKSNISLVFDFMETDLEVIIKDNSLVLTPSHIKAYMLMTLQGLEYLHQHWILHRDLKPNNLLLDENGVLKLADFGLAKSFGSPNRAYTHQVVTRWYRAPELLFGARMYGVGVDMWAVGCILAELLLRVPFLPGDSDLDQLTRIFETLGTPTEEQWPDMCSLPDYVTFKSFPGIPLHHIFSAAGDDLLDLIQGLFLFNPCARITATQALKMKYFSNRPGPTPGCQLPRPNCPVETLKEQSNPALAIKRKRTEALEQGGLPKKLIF

inhibition at 2 µM (RET(M918T)): 95%
inhibition at 2 µM (MERTK): 97%
inhibition at 2 µM (EPHB6): 95%
inhibition at 2 µM (CDK11): 100%
inhibition at 2 µM (TRKB): 94%
inhibition at 2 µM (AXL): 100%
inhibition at 2 µM (FLT3(K663Q)): 93%
inhibition at 2 µM (DDR1): 100%
inhibition at 2 µM (MET): 93%
inhibition at 2 µM (PDGFRB): 98%
inhibition at 2 µM (TRKC): 97%
inhibition at 2 µM (EPHA8): 96%
inhibition at 2 µM (MET(M1250T)): 99%
inhibition at 2 µM (MYO3B): 100%
inhibition at 2 µM (KIT): 100%
inhibition at 2 µM (KIT(V559D)): 100%
inhibition at 2 µM (IKK-alpha): 97%
inhibition at 2 µM (FLT4): 92%
inhibition at 2 µM (CDKL2): 100%
inhibition at 2 µM (LOK): 100%
inhibition at 2 µM (MUSK): 98%
inhibition at 2 µM (MET(Y1235D)): 99%
inhibition at 2 µM (TIE1): 99%
inhibition at 2 µM (PLK4): 90%
inhibition at 2 µM (TIE2): 99%
inhibition at 2 µM (MKNK1): 95%
inhibition at 2 µM (FLT3): 99%
inhibition at 2 µM (CDK7): 96%
inhibition at 2 µM (MST1R): 98%
Compound: COc1ccc(C(=O)Nc2ccc(Oc3cc4cnn(C)c4cc3-c3cn[nH]c3)c(F)c2)c(=O)n1-c1ccc(F)cc1 [Example 12, N-(3-fluoro-4-(1-methyl-6-(1H-pyrazol-4-yl)-1H-indazol-5-yloxy)phenyl)-1-(4-fluorophenyl)-6-methoxy-2-oxo-1,2-dihydropyridine-3-carboxamide]
inhibition at 2 µM (NEK9): 95%
